Common to all, as to type: in vivo
The subject of assay [1] is Erysiphe graminis f. sp. hordei. Kind of assay: Erysiphe test (barley)/protective. As to conditions: protective, application rate 750 g/ha, evaluation 7 days after inoculation.
For a further assay, the system named is Alternaria solani. The assay can be described thus: Alternaria test (tomato)/protective. The conditions noted are these: protective, application rate 750 g/ha, evaluation 7 days after inoculation.
The next assay relates to Botrytis cinerea. Kind of assay: Botrytis test (bean)/protective. The conditions noted are these: protective, application rate 500 g/ha, evaluation 2 days after inoculation. On the procedure: Botrytis Test (Bean)/Protective • Solvent: 49 parts by weight of N,N-dimethylformamide • Emulsifier: 1 part by weight of alkylaryl polyglycol ether To produce a suitable preparation of active compound, 1 part by weight of active compound is mixed with the stated amounts of solvent and emulsifier, and the concentrate is diluted with water to the desired concentration. To test for protective activity, young plants are sprayed with the preparation of active compound at the stated application rate. After the spray coating has dried on, 2 small pieces of agar colonized by Botrytis cinerea are placed onto each leaf. The inoculated plants are placed in a dark chamber at about 20° C. and 100% relative atmospheric humidity. 2 days after the inoculation, the size of the infected areas on the leaves is evaluated. 0% means an efficacy which corresponds to that of the control, whereas an efficacy of 100% means that no infection is observed.

Each structure is given as a SMILES string.

`CC(C)CC(C)c1ccccc1NC(=O)c1ccccc1I` (stereo not drawn) [drawing 19] yielded an Efficacy in % in assay [1] of 95%. In the assay on Alternaria solani, `CC(C)CC(C)c1ccccc1NC(=O)c1ccccc1I` (stereo not drawn) [drawing 17] gave an Efficacy in % of 100%. In the assay with Botrytis cinerea, `CC(C)CC(C)c1ccccc1NC(=O)c1ccccc1I` (stereo not drawn) [drawing 15] yielded an Efficacy in % of 93%. The compound `CC(C)CC(C)c1ccccc1NC(=O)c1ccccc1C(F)(F)F` (stereo not drawn) [drawing 16] returned an Efficacy in % in the assay with Alternaria solani of 100%. As to `CC(C)CC(C)c1ccccc1NC(=O)c1ccccc1C(F)(F)F` (stereo not drawn) [drawing 18], the Efficacy in % in assay [1] was 95%. Regarding `CC(C)CC(C)c1ccccc1NC(=O)c1ccccc1C(F)(F)F` (stereo not drawn) [drawing 14], the Efficacy in % with Botrytis cinerea was 93%.

The values are drawn from patent US7314958B2, “Phenylbenzamides” (Bayer CropScience AG, priority 2002, dated 2008).
